Assay results: PubChem BioAssay AID2310 (SRMLSC, 2010)

System: virus CPE inhibition assay, host cell viability
Assay: dose response, CPE inhibition, cell viability (AID 2310)
[1] = measured here: HTS CPE inhibition EC50
[2] = measured here: HTS cell viability IC50
[3] = measured here: cytotoxicity, cell viability IC50

## Cc1cccc(C2NC(=O)NC3=C2CCc2ccccc23)c1 (stereo unspecified)
  EC50: 700 nM
[1]
  EC50: 908 nM
[2]
  CC50: > 20000 nM
[3]
  CC50: > 50000 nM

## O=C1NC2=C(CCc3ccccc32)C(c2ccc3c(c2)OCO3)N1 (stereo unspecified)
  EC50: 390 nM
[1]
  EC50: > 20000 nM
[2]
  CC50: 17500 nM
[3]
  CC50: 29600 nM

## COc1ccc(-c2nc(=O)[nH]c3c2CCc2ccccc2-3)cc1
  EC50: 960 nM
[1]
  EC50: 1100 nM
[2]
  CC50: > 20000 nM
[3]
  CC50: > 50000 nM

## O=C(Nc1c(-c2ccccc2)nc2sccn12)c1ccccc1
  EC50: 634 nM
[1]
  EC50: 634 nM
[2]
  CC50: > 60000 nM
[3]
  CC50: > 60000 nM
